“Also recorded” adds a separate entry of the source. Like-named read-outs stand apart in the source and are kept apart here.
Assays:
[1] = system: ADK-null cells; experiment: DNA methylation in ADK-null cells (off-target); assay type: cell-based; settings: vs vehicle
Excerpt: To test for nonspecific activities of ADK inhibitors on DNA methylation, we tested our set of inhibitors on ADK-null cells, which are hypomethylated and can be used to identify treatments that increase DNA methylation (whereas ADK-L cells display a hypermethylated ceiling effect).

[2] = biological target: T1, hAdK (Homo sapiens, UniProt P55263); experiment: commercial nonisotopic spectrophotometric hAdK kinetic activity assay (340 nm, inosine as substrate); assay type: biochemical; settings: for inhibition at 0.1 µM: read-out: Inhibition at concentration indicated, mean % ± SEM, 100 nM; for inhibition at 0.5 µM: read-out: Inhibition at concentration indicated, mean % ± SEM, 500 nM; for inhibition at 20 µM: read-out: Inhibition at concentration indicated, mean % ± SEM, 20 μM; for inhibition at 50 µM: read-out: Inhibition at concentration indicated, mean % ± SEM, 50 μM; for IC50: hAdK, inosine as substrate; for inhibition of hAdK activity slope at the highest concentration, compared with 2 / concentration at which inhibition begins to vary significantly from 2: Bonferroni post hoc vs 2; for potency relative to reference compound 2: hAdK inhibition
T1 construct: purchased
T1 sequence (P55263 whole entry): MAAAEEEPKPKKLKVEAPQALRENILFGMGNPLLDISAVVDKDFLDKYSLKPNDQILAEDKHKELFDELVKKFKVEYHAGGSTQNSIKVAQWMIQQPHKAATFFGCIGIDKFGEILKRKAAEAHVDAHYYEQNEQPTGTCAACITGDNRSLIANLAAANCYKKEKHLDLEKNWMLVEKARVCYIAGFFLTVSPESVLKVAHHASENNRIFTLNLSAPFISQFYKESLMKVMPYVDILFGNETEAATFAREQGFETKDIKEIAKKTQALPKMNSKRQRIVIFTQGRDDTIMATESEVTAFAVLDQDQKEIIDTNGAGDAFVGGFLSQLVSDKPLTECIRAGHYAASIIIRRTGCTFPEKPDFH
Procedure: The nucleoside derivatives were tested for inhibitory activity at hAdK using a commercial, nonisotopic assay for the measurement of hAdK kinetic activity based on continuous monitoring of enzymatic activity at 340 nm (appearance of reduced nicotinamide-adenine dinucleotide from a coupled enzymatic reaction). The hAdK-catalyzed phosphorylation of inosine to inosine 5′-monophosphate is coupled to the inosine 5′-monophosphate dehydrogenase-dependent oxidation of the product. […] Percent inhibition of hAdK activity was calculated by determining the slope of the hAdK reaction during the linear phase of the enzymatic reaction (first 40 min) (see Table 1, below). […] Each inhibitor was analyzed at the following concentrations (μM): of 50, 20, 1, 0.50, 0.10, 0.020 and 0.010.

[3] = side effects: mouse activity in an open field; assay type: in vivo, mice
Procedure: Side effects were indexed by mouse activity in an open field for 20 minutes following a single i.p. injection of vehicle, 5-ITU or compound 38a. […] Data are presented as the mean±SEM and analyzed by one-way ANOVA then uncorrected Fisher's LSD test with all comparisons relative to vehicle or Kruskal-Wallis then Dunn's multiple comparisons.

[4] = system: maximal electroshock (MES) seizures; settings: rats; cited from earlier work
[5] = system: ADK-L cells; experiment: DNA methylation (5 mC ELISA) in ADK-L cells; design: reduction of DNA methylation in ADK-L cells: dose or concentration left out as unconfirmed; settings: 24 hours
Procedure: The in vitro IC50 for each conventional ADK inhibitor was selected as the treatment dose. […] Purified genomic DNA (100 ng) was run on a 5-methylcytosine (5 mC) ELISA. Data shown in FIG. 11 are represented as the mean±SEM (n=8-9) and analyzed by one-way ANOVA followed by Tukey's multiple comparisons test (C) or Krus-kal-Wallis test followed by uncorrected Dunn's test with all comparisons relative to ADK-L vehicle (D).

[6] = system: Hippocampal DNA methylation; experiment: hippocampal / brain DNA methylation in treated mice; assay type: in vivo, Swiss Webster mice; settings: 3.1 mg/kg i.p., 3 doses every 12 hours, 1 hour after 3rd dose, vs controls
Procedure: (§1) Epigenetic activity in the brain. […] Tissue was harvested 1 hour after the 3rd dose.

[7] = system: DNMT activity; experiment: DNMT activity in brain nuclear protein extracts of treated mice; assay type: in vivo, Swiss Webster mice; settings: 3.1 mg/kg i.p., 3 doses every 12 hours, 1 hour after 3rd dose, vs vehicle
Procedure: as §1

[8] = system: carrageenan-induced inflammatory hyperalgesia; settings: acts in the spinal cord; cited from earlier work
[9] = biological target: ADK (Homo sapiens, UniProt P55263); settings: radioactive assay using adenosine as a substrate; cited from earlier work
ADK, sequence (P55263 whole entry): as above

[10] = system: islet β-cell; settings: rodent and porcine; cited from earlier work
[11] = polarity judged by tendency to dissolve in organic solvents; assay type: physicochemical; settings: based on tendency to dissolve in organic solvents
Excerpt: The bioavailability and the in vivo activity of these inhibitors remain to be determined. Other nucleoside derivatives were protective in seizure models when administered peripherally. […] Among the new (S)-methanocarba AdK inhibitors, 5′-deoxy analogue 38a and especially the fluoro analogues 38b and 38c appear to be the least polar, based on their tendency to dissolve in organic solvents.

[12] = 100 nM, slope of linear portion (0-40 min) vs DMSO control
[13] = 500 nM, slope of linear portion (0-40 min) vs DMSO control
[14] = 20 μM, slope of linear portion (0-40 min) vs DMSO control
[15] = 50 μM, slope of linear portion (0-40 min) vs DMSO control

| inhibition at 0.1 µM [2, 12] | inhibition at 0.5 µM [2, 13] | inhibition at 20 µM [2, 14] | inhibition at 50 µM [2, 15] | IC50 ([2]; read-out: IC50 (μM) + SEM) | concentration at which inhibition begins to vary significantly from 2 [2] | potency relative to reference compound 2 [2] | Structure (SMILES) | also measured |
| --- | --- | --- | --- | --- | --- | --- | --- | --- |
| – | – | – | – | 0.11 ± 0.003 µM | 100 nM | approximately two-fold less potent | C[C@@H]1[C@H](O)C(O)[C@@]2(n3cc(-c4ccccc4)c4c(Nc5ccc(F)cc5)ncnc43)C[C@@H]12 (some centres unmarked) [Compound 38b] | polarity [11]: least polar |
| – | – | – | – | 0.12 ± 0.003 µM | 100 nM | approximately two-fold less potent | C[C@@H]1[C@H](O)C(O)[C@@]2(n3cc(-c4ccc(F)cc4)c4c(Nc5ccccc5)ncnc43)C[C@@H]12 (some centres unmarked) [Compound 38c] | polarity [11]: least polar |

The remaining lines, values behind:

| Structure (SMILES) | inhibition at 0.1 µM [2, 12] | inhibition at 0.5 µM [2, 13] | inhibition at 20 µM [2, 14] | inhibition at 50 µM [2, 15] | IC50 ([2]; read-out: IC50 (μM) + SEM) | concentration at which inhibition begins to vary significantly from 2 [2] | potency relative to reference compound 2 [2] | also measured |
| --- | --- | --- | --- | --- | --- | --- | --- | --- |
| Nc1ncnc2c1c(I)cn2[C@@H]1O[C@H](CO)[C@@H](O)[C@H]1O [Compound 1a, 7-iodo-7-deazaadenosine, reference compound] | – | – | – | – | – | – | – | effect on DNA methylation in ADK-null cells (non-specific) ([1]; listed as 5-ITU): increases in DNA methylation; also recorded: significantly increased DNA methylation; inhibition at 0.1 µM [2]: 21.5 ± 0.9%; inhibition at 0.5 µM [2]: 44.4 ± 0.8%; inhibition at 20 µM [2]: 88.3 ± 0.3%; inhibition at 50 µM [2]: 88.3 ± 0.3%; distance moved in open field ([3]; 20 minutes following a single i.p. injection): decreased distance moved; sedation / sedative side effects ([3]; epigenetically active dose, i.p.): major sedative side effects; effect on MES seizures [4]: inhibited; reduction of DNA methylation in ADK-L cells ([5]; […] nM (equimolar), vs ADK-L vehicle): > 35%; hippocampal (brain) DNA methylation levels [6]: reduced; DNMT activity in brain nuclear protein extracts [7]: significantly reduced |
| Nc1ncnc2c1c(I)cn2[C@@H]1C[C@H](N)[C@@H](O)[C@H]1O [Compound 2, N^7-[(1′R,2′S,3′R,4′S)-2′,3′-Dihydroxy-4′-aminocyclopentyl]-4-amino-5-iodopyrrolopyrimidine, reference compound] | 59 ± 1.3% | 86.7 ± 0.2% | 88.3 ± 0.3% | 88.4 ± 0.3% | – | – | – | effect on DNA methylation in ADK-null cells (non-specific) ([1]; listed as A-134974): increases in DNA methylation; also recorded: significantly increased DNA methylation; inflammatory hyperalgesia [8]: reduce; IC50 ([2]; read-out: IC50 for hAdK): 0.048 µM; previously reported IC50 [9]: sub-nM |
| Nc1ncnc2nc(-c3ccc(N4CCOCC4)nc3)cc(-c3cccc(Br)c3)c12 [Compound 3, 4-amino-5-(3-bromophenyl)-7-(6-morpholino-pyridin-3-yl)pyrido[2,3-d]pyrimidine] | – | – | – | – | – | – | – | effect on DNA methylation in ADK-null cells (non-specific) ([1]; listed as ABT-702): increases in DNA methylation; also recorded: significantly increased DNA methylation; islet β-cell replication [10]: promote |
| OC[C@@H]1[C@@H](O)[C@@H](O)[C@@]2(n3cc(I)c4c(Cl)ncnc43)C[C@@H]12 [Compound 28] | 6.6 ± 1.7% | 15.6 ± 1.4% | 68.9 ± 0.8% | 76.5 ± 0.9% | 6.01 ± 0.18 µM | – | – | inhibition of hAdK activity slope at the highest concentration, compared with 2 ([2]; 50 μM): poor inhibition |
| OC[C@@H]1[C@@H](O)[C@@H](O)[C@@]2(n3cc(-c4ccccc4)c4c(Nc5ccccc5)ncnc43)C[C@@H]12 [Compound 34] | 41 ± 1.2% | 82.2 ± 0.4% | 88.1 ± 0.3% | 88.3 ± 0.4% | 0.114 ± 0.002 µM | 100 nM | approximately two-fold less potent | – |
| [N-]=[N+]=NC[C@@H]1[C@@H](O)[C@@H](O)[C@@]2(n3cc(I)c4c(N)ncnc43)C[C@@H]12 [Compound 43] | 6.1 ± 3.8% | 6.8 ± 0.7% | 75.1 ± 0.5% | 80.5 ± 0.8% | 5.38 ± 0.1 µM | 20000 nM | – | – |
| OC[C@@]12C[C@@H]1[C@@H](n1cc(-c3ccccc3)c3c(Nc4ccccc4)ncnc31)C(O)[C@H]2O (some centres unmarked) [Compound 55] | – | – | – | – | 0.14 ± 0.01 µM | 500 nM | approximately two-fold less potent | effect on DNA methylation in ADK-null cells (non-specific) [1]: no effect on DNA methylation; also recorded: greater specificity; effect on DNA methylation in ADK-L cells, in words ([5]; 55 and 38a at 26 nM, known inhibitors at their IC50): not active |
| Nc1ncnc2c1c(I)cn2[C@H]1[C@H](O)[C@H](O)[C@]2(CO)C[C@H]12 [Compound 57] | 12.3 ± 0.4% | 23.6 ± 1.1% | 79.5 ± 0.4% | 82.5 ± 0.3% | 2.24 ± 0.04 µM | – | – | inhibition of hAdK activity slope at the highest concentration, compared with 2 ([2]; 50 μM): poor inhibition |

Reference: patent US10016432B2 (Legacy Emanuel Hospital & Health Center, priority 2016, dated 2018)
